Assays:
Assay in all cases: biochemical
Details in all cases: read-out: Binding / ================================================= / % Inhibition of Control Specific Binding
[1] = target: T1, 5-HT1A (h) (agonist radioligand) (Homo sapiens, UniProt P08908)
T1 construct: gene HTR1A

[2] = target: T2, 5-HT1B (h) (antagonist radioligand) (Homo sapiens, UniProt P28222)
T2 construct: gene HTR1B

[3] = target: T3, 5-HT2B (h) (agonist radioligand) (Homo sapiens, UniProt P41595)
T3 construct: gene HTR2B

[4] = target: T4, 5-HT2C (h) (antagonist radioligand) (Homo sapiens, UniProt P28335)
T4 construct: gene HTR2C

[5] = target: AR(h) (agonist radioligand) (Homo sapiens, UniProt P10275)
[6] = target: T5, AT1 (h) (antagonist radioligand) (Homo sapiens, UniProt P30556)
T5 construct: gene AGTR1

[7] = target: T6, B2 (h) (agonist radioligand) (Homo sapiens, UniProt P30411)
T6 construct: gene BDKRB2

[8] = target: T7, CB2 (h) (agonist radioligand) (Homo sapiens, UniProt P34972)
T7 construct: gene CNR2

[9] = target: T8, CCK2 (CCKB) (h) (agonist radioligand) (Homo sapiens, UniProt P32239)
T8 construct: gene CCKBR

[10] = target: CXCR2 (IL-8B) (h) (agonist radioligand) (Homo sapiens, UniProt P25025)
[11] = target: T9, D2L (h) (antagonist radioligand) (Homo sapiens, UniProt P14416)
T9 construct: gene DRD2

[12] = target: T10, ETA (h) (agonist radioligand) (Homo sapiens, UniProt P25101)
T10 construct: gene EDNRA

[13] = target: T11, Estrogen ER alpha (h) (agonist radioligand) (Homo sapiens, UniProt P03372)
T11 construct: gene ESR1

[14] = target: T12, GABAA1 (h) (alpha 1,beta 2,gamma 2) (agonist radioligand) (Homo sapiens, UniProt P14867+P47870)
T12 construct: gene GABRA1

[15] = target: T13, GR (h) (agonist radioligand) (Homo sapiens, UniProt P04150)
T13 construct: gene NR3C1

[16] = target: T14, M3 (h) (antagonist radioligand) (Homo sapiens, UniProt P20309)
T14 construct: gene CHRM3

[17] = target: T15, M4 (h) (antagonist radioligand) (Homo sapiens, UniProt P08173)
T15 construct: gene CHRM4

[18] = target: T16, MC1 (agonist radioligand) (Mus musculus, UniProt Q01727)
T16 construct: gene Mc1r

[19] = target: T17, N muscle-type (h) (antagonist radioligand) (Homo sapiens, UniProt P02708+P07510+Q07001)
T17 construct: gene CHRNA1

[20] = target: T18, N neuronal alpha 4beta 2 (h) (agonist radioligand) (Homo sapiens, UniProt P17787+P43681)
T18 construct: gene CHRNB2

[21] = target: T19, NK1 (h) (agonist radioligand) (Homo sapiens, UniProt P25103)
T19 construct: gene TACR1

[22] = target: T20, RARalpha (h) (agonist radioligand) (Homo sapiens, UniProt P10276)
T20 construct: gene RARA

[23] = target: T21, Y1 (h) (agonist radioligand) (Homo sapiens, UniProt P25929)
T21 construct: gene NPY1R

[24] = target: T22, alpha 1B (h) (antagonist radioligand) (Homo sapiens, UniProt P35368)
T22 construct: gene ADRA1B

[25] = target: T23, alpha 1D (h) (antagonist radioligand) (Homo sapiens, UniProt P25100)
T23 construct: gene ADRA1D

[26] = target: T24, alpha 2A (h) (antagonist radioligand) (Homo sapiens, UniProt P08913)
T24 construct: gene ADRA2A

[27] = target: T25, beta 1 (h) (agonist radioligand) (Homo sapiens, UniProt P08588)
T25 construct: gene ADRB1

[28] = target: T26, beta 2 (h) (antagonist radioligand) (Homo sapiens, UniProt P07550)
T26 construct: gene ADRB2

[29] = target: T27, mGluR5 (h) (agonist radioligand) (Homo sapiens, UniProt P41594)
T27 construct: gene GRM5

[30] = target: T28, norepinephrine transporter (h) (antagonist radioligand) (Homo sapiens, UniProt P23975)
T28 construct: gene SLC6A2

T21 sequence (P25929 whole entry): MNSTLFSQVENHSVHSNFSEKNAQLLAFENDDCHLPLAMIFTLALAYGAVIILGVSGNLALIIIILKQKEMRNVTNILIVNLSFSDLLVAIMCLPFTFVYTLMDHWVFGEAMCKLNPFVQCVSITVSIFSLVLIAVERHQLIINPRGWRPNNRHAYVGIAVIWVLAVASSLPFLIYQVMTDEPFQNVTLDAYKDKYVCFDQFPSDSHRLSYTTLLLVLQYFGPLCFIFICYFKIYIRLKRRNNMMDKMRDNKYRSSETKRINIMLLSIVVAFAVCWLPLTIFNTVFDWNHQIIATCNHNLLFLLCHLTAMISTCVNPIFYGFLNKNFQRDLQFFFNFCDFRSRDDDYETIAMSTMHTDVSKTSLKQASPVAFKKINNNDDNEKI
T3 sequence (P41595 whole entry): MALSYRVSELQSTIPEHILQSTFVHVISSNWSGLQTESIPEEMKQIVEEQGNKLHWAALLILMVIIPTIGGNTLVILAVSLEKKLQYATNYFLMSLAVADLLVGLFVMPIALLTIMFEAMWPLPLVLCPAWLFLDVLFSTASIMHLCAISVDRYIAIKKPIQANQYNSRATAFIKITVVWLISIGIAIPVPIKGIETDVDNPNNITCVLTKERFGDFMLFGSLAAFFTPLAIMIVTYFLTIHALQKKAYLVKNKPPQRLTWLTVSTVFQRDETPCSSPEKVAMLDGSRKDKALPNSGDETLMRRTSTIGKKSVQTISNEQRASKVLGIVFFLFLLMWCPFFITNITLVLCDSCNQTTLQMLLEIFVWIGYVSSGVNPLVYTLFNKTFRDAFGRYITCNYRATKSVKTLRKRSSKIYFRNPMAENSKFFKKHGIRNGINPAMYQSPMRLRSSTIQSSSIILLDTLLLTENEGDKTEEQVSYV
T2 sequence (P28222 whole entry): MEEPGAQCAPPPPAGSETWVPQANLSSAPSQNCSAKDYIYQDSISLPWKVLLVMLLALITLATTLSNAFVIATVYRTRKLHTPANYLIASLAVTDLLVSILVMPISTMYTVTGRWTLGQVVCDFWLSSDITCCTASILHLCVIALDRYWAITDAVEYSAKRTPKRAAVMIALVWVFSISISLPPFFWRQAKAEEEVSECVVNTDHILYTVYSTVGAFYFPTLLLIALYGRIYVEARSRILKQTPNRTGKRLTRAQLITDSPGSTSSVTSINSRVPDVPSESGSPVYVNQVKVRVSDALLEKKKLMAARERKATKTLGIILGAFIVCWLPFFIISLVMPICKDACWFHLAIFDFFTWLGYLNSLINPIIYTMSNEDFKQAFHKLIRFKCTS
T9 sequence (P14416 whole entry): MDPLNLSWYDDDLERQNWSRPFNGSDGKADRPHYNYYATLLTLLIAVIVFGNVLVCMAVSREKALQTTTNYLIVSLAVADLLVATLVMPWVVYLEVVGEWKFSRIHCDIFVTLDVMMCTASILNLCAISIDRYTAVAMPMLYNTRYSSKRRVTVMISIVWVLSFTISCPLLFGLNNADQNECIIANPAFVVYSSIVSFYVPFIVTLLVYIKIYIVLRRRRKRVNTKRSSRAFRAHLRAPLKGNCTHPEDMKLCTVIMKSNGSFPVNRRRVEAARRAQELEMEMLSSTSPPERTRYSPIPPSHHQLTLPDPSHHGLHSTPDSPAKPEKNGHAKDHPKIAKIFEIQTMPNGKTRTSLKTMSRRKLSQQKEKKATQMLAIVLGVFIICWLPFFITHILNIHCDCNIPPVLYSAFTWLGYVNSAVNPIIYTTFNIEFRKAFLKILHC
T24 sequence (P08913 whole entry): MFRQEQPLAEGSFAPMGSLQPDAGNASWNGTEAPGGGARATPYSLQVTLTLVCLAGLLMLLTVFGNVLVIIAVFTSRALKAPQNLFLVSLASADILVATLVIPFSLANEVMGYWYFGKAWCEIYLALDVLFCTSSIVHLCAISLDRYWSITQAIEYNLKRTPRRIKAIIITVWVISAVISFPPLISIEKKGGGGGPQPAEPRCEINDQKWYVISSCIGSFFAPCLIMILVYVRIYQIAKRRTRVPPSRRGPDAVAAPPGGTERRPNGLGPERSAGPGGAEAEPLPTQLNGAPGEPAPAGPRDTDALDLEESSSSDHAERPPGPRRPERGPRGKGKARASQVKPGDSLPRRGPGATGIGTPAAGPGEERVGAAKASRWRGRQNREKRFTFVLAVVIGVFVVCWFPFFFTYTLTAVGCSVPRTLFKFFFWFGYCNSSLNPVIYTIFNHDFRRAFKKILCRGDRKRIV
T4 sequence (P28335 whole entry): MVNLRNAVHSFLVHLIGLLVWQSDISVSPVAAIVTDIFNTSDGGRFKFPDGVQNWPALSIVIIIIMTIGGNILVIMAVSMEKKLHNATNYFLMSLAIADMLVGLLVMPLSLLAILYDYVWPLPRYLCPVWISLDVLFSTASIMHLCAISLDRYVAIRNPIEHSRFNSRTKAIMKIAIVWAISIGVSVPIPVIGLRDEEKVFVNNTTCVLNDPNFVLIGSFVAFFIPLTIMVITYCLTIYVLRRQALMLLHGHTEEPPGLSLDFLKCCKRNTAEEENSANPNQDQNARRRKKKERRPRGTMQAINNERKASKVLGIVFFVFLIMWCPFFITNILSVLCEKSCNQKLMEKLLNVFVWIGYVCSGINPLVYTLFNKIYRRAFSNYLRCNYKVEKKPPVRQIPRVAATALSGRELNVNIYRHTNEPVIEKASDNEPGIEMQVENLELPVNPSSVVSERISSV
T6 sequence (P30411 whole entry): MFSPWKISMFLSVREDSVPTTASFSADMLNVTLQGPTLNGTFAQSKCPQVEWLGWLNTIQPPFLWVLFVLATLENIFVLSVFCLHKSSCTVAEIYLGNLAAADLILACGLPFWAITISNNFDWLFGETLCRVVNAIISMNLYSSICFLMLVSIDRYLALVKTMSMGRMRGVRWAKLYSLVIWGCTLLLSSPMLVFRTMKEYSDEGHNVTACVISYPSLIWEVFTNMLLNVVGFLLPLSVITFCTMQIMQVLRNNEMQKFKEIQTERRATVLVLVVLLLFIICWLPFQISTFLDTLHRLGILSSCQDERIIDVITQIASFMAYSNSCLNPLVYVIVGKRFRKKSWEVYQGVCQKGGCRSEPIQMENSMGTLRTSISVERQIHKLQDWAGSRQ
T27 sequence (P41594 whole entry): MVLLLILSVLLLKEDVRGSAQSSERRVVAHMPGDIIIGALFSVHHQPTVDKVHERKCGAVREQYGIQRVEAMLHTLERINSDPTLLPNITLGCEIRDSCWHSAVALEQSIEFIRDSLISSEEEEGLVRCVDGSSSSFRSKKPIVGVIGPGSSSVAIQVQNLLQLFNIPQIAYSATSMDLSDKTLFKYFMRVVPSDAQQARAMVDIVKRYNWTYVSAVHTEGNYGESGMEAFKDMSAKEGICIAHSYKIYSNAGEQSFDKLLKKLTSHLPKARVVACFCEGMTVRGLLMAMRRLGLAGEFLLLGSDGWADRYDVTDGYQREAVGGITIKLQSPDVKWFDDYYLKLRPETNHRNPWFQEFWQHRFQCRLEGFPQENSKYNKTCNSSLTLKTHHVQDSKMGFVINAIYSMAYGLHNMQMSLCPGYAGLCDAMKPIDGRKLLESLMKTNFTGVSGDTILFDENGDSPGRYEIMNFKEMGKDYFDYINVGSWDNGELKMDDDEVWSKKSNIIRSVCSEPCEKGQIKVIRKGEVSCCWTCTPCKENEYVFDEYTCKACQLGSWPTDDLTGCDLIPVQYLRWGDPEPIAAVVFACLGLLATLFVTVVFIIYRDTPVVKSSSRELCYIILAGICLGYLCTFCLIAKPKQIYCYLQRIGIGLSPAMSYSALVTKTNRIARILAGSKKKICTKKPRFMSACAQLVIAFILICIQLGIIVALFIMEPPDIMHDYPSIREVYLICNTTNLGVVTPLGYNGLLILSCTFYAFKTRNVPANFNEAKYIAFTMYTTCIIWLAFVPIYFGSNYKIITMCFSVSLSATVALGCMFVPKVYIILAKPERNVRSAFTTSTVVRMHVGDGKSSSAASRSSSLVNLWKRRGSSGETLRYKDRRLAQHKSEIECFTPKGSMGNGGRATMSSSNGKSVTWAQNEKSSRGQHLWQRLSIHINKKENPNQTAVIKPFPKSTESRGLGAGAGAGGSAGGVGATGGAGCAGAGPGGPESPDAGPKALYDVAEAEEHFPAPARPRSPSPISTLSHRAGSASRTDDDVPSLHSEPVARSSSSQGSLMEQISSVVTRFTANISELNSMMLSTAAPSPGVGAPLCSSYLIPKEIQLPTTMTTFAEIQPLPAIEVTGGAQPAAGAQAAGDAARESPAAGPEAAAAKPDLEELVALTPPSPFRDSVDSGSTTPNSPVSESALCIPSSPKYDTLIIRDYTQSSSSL
T15 sequence (P08173 whole entry): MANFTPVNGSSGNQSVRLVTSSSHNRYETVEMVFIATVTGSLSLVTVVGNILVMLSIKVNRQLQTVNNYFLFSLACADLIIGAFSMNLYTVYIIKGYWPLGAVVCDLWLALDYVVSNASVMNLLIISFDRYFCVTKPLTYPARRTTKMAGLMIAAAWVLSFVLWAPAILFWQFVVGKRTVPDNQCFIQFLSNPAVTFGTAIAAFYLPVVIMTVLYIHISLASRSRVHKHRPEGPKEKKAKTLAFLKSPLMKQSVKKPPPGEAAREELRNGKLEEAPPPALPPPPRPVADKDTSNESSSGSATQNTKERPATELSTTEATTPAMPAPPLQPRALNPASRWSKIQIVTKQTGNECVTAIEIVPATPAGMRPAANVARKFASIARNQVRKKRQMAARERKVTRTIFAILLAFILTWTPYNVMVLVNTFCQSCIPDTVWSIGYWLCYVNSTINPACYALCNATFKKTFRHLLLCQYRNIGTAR

For C[C@@H](Nc1ncnc2ccc(-c3cnc(Cl)c(NS(C)(=O)=O)c3)cc12)c1ccccc1 [MTX-531, (R)-N-(2-chloro-5-(4-((1-phenylethyl)amino)quinazolin-6-yl)pyridin-3-yl)methane-sulfonamide], the inhibition at 10 µM [1] was 6%, the inhibition at 10 µM [2] was -21% and the inhibition at 10 µM [3] was 2%. The inhibition at 10 µM [4] was 4%, the inhibition at 10 µM [5] was -1% and the inhibition at 10 µM [6] was 4%. The inhibition at 10 µM [7] was -1%, the inhibition at 10 µM [8] was 39% and the inhibition at 10 µM [9] was -8%. The inhibition at 10 µM [10] was 4%, the inhibition at 10 µM [11] was -17% and the inhibition at 10 µM [12] was 1%. The inhibition at 10 µM [13] was 6%, the inhibition at 10 µM [14] was -5% and the inhibition at 10 µM [15] was 3%. The inhibition at 10 µM [16] was -4%, the inhibition at 10 µM [17] was 5% and the inhibition at 10 µM [18] was 2%. For the same compound, the inhibition at 10 µM [19] was 6%, the inhibition at 10 µM [20] was -8% and the inhibition at 10 µM [21] was -5%. It also gave an inhibition at 10 µM [22] of 4%, an inhibition at 10 µM [23] of 0% and an inhibition at 10 µM [24] of 1%. It also gave an inhibition at 10 µM [25] of 17%, an inhibition at 10 µM [26] of 5% and an inhibition at 10 µM [27] of 1%. The inhibition at 10 µM [28] was -6%, the inhibition at 10 µM [29] was 5% and the inhibition at 10 µM [30] was 19%.

Reference: publication PMC11357990, “A first-in-class selective inhibitor of EGFR and PI3K offers a single-molecule approach to targeting adaptive resistance” (Nature Cancer, 2024)
